The assay in a line: thallium-flux assay: The thallium flux assay is an in vitro method of measuring conductance through a potassium ion channel. Potassium channels are also permeable to thallium ions. The modulation of a K+ channel will thus increase or decrease thallium ion flow through the channel and thus, alter the observed fluorescence of a thallium-specific indicator dye.Stably transfected T-Rex-HEK-293-AnKir1 cells were cultured overnight in 384-well plates in media containing DMEM, 10% dialyzed FBS, and 1 μg/mL tetracycline to induce channel expression. The next day the cell culture medium was replaced with a dye-loading solution containing assay buffer (Hanks Balanced Salt Solution with 20 mM HEPES, pH 7.3), 0.01% (w/v) Pluronic F-127 (Life Technologies, Carlsbad, Calif.), and 1.2 μM of the thallium-sensitive dye Thallos-AM (TEFlabs, Austin, Tex.). After 1 hr incubation at room temperature, the dye-loading solution was washed from the plates and replaced with 20 μL/well of assay buffer. The plates were transferred to a Hamamatsu Functional Drug Screening System 6000 (FDSS6000; Hamamatsu, Tokyo, Japan), where 20 μL/well of each of the test compounds in assay buffer was added and allowed to incubate with the cells for 20 min. […].

Our source for the IC50 values is ChEMBL document CHEMBL5729670, “Method for controlling hematophagous or sap-feeding arthropods” (2023).

What is called IC50 is the concentration that inhibits the measured activity by half. `O=C(Cn1nc(C(F)(F)F)c2c1CCCC2)N1CCc2ccccc2C1`: the half-inhibitory concentration (IC50) stood at 15 µM.
